From patent US20040176431A1, “Antiproliferative 2-(sulfo-phenyl)-aminothiazole derivatives and pharmaceutical compositions, and methods for their use” (Pfizer, Inc., priority 2003, published 2004)

What was measured:
CDK4/cyclin D3 = molecular target: T1, CDK4/cyclin D3 (Homo sapiens, UniProt P11802); test: Inhibition of CDK4/Cyclin D retinoblastoma kinase activity; format: biochemical; conditions: apparent Ki, Rb fragment substrate
T1 construct: made in house; host or cells: insect cells (baculovirus co-infection)
Summary of the method: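 Apparent Ki derived by fitting activity at varied inhibitor concentrations to competitive (or competitive tight-binding) inhibition equations, background without enzyme subtracted. Radiometric filter-binding read-out of Rb(386-928) phosphorylation by 5 nM CDK4/cyclin D3(1-264); 25 μM ATP, pH 7.4, 2% DMSO, 30° C., 20 min, extended to 60 min for tight binders.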

CDK2/cyclin A = molecular target: T2, CDK2/cyclin A (Homo sapiens, UniProt P24941); test: Inhibition of CDK2/Cyclin A retinoblastoma kinase activity; format: biochemical; conditions: apparent Ki, Rb fragment substrate
T2 construct: made in house; host or cells: CDK2: insect cells (baculovirus); cyclin A: E. coli, then limited proteolysis
Method: (§1) Cyclin-dependent kinase activity was measured by quantifying the enzyme-catalyzed, time-dependent incorporation of radioactive phosphate from [^32P]ATP or [^33P]ATP into a protein substrate. Unless noted otherwise, assays were performed in 96-well plates in a total volume of 50 μL, in the presence of 10 mM HEPES (N-[2-hydroxyethyl]piperazine-N′-[2-ethanesulfonic acid]) (pH 7.4), 10 mM MgCl2, 25 μM adenosine triphosphate (ATP), 1 mg/mL ovalbumin, 5 μg/mL leupeptin, 1 mM dithiothreitol, 10 mM β-glycerophosphate, 0.1 mM sodium vanadate, 1 mM sodium fluoride, 2.5 mM ethylene glycol-bis(β-aminoethyl ether)-N,N,N′N′-tetraacetic acid (EGTA), 2% (v/v) dimethylsulfoxide, and 0.03-0.4 μCi [^32/33P]ATP per reaction. Reactions were initiated with enzyme, incubated at 30° C., and terminated after 20 minutes by the addition of ethylenediaminetetraacetic acid (EDTA) to 250 mM. The phosphorylated substrate was then captured on a nitrocellulose or phosphocellulose membrane using a 96-well filtration manifold, and unincorporated radioactivity was removed by repeated washing with 0.85% phosphoric acid. Radioactivity was quantified by exposing the dried membranes to a phosphorimager.
(§2) Inhibition was measured relative to control wells that contained all reaction components including 2% (v/v) DMSO but no compound, after subtraction of background radioactivity measured in the absence of enzyme. Apparent Ki values of discrete compounds were measured by assaying enzyme activity in the presence of different inhibitor compound concentrations and subtracting the background radioactivity measured in the absence of enzyme. The kinetic parameters (kcat, Km for ATP) were measured for each enzyme under the usual assay conditions by determining the dependence of initial rates on ATP concentration. Inhibition data were fit to an equation for competitive inhibition using Kaleidagraph (Synergy Software), or were fit to an equation for competitive tight-binding inhibition using the software KineTic (BioKin, Ltd.).
CDK2 was purified using published methodology (Rosenblatt et al., J. Mol. Biol., 230, 1317-1319 (1993)) from insect cells that had been infected with a baculovirus expression vector. Cyclin A was purified from E. coli cells expressing full-length recombinant cyclin A, and a truncated cyclin A construct was generated by limited proteolysis and purified as described previously (Jeffrey et al., Nature, 376, 313-320 (1995)). A complex of CDK2 and proteolyzed cyclin A was prepared and purified by gel filtration. The substrate for this assay was the same Rb substrate fragment used for the CDK4 assays, and the methodology of the CDK2/delta cyclin A and the CDK4/delta cyclin D3 assays was essentially the same, except that CDK2 was present at 10 nM or 19 nM. The duration of the assay was 60 or 75 minutes, during which the time-dependence of product formation was linear and initial rate conditions were met.

CDK1 (cdc2)/cyclin B = molecular target: T3, CDK1 (cdc2)/cyclin B (Homo sapiens, UniProt P06493); test: Inhibition of CDK1(cdc2)/Cyclin B histone H1 kinase activity; format: biochemical; conditions: apparent Ki, histone H1 substrate
T3 construct: purchased New England Biolabs (Beverly Mass.)
Method: as §1
as §2, with “Inhibition data were fit to an equation for competitive inhibition using Kaleidagraph (Synergy Software), or were fit to an equation for competitive tight-binding inhibition using the software KineTic (BioKin, Ltd.).” left out
The complex of human CDK1 (cdc2) and cyclin B was purchased from New England Biolabs (Beverly Mass.). […] Phosphorylated histone substrate was captured by microfiltration on a phosphocellulose P81 membrane and quantified using a phosphorimager as described above.

HCT-116 cells = test: Inhibition of cell growth (MTT tetrazolium salt assay); format: cell-based; conditions: Homo sapiens; for IC50: read-out: HCT116 IC50; for IC90: read-out: HCT116 IC90
Method: Inhibition of cell growth was measured using the tetrazolium salt assay, which is based on the ability of viable cells to reduce 3-(4,5-dimethylthiazol-2-yl)-2,5-[2H]-diphenyltetrazolium bromide (MTT) to formazan (Mosmann, J. Immunol. Meth., 65, 55-63 (1983)). The water-insoluble purple formazan product was then detected spectrophotometrically. HCT-116 cells were grown in 96-well plates. Cells were plated in the appropriate medium at a volume of 135 μl/well in either McCoy's 5A Medium. Plates were incubated for four hours before addition of inhibitor compounds. Different concentrations of inhibitor compounds were added in 0.5% (v/v) dimethylsulfoxide (15 μL/well), and cells were incubated at 37° C. (5% CO2) for four to six days (depending on cell type). At the end of the incubation, MTT was added to a final concentration of 0.2 mg/mL, and cells were incubated for 4 hours more at 37° C. After centrifugation of the plates and removal of medium, the absorbance of the formazan (solubilized in dimethylsulfoxide) was measured at 540 nm. […] All results were compared to control cells treated only with 0.5% (v/v) dimethylsulfoxide.

T3 sequence (P06493 whole entry): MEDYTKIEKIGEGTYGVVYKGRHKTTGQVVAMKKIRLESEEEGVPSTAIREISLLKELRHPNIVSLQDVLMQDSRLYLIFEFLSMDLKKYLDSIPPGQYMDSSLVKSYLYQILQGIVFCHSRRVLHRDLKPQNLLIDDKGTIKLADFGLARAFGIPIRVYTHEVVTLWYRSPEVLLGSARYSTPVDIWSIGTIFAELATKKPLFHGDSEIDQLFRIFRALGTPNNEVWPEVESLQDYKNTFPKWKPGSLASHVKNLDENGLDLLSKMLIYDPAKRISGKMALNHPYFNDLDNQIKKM
T3 sequence (P14635 whole entry partner): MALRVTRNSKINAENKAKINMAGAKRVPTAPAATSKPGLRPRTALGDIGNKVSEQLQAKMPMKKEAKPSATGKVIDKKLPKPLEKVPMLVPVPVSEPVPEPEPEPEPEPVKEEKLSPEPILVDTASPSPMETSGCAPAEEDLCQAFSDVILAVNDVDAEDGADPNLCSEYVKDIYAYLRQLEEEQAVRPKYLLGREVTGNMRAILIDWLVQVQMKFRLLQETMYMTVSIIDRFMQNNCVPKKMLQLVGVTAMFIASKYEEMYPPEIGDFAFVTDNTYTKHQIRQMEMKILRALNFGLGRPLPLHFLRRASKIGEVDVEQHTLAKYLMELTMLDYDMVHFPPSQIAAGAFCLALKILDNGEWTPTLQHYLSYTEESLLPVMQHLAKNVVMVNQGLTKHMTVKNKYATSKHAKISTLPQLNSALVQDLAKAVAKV
T1 sequence (P11802 whole entry, the tested form may be a part): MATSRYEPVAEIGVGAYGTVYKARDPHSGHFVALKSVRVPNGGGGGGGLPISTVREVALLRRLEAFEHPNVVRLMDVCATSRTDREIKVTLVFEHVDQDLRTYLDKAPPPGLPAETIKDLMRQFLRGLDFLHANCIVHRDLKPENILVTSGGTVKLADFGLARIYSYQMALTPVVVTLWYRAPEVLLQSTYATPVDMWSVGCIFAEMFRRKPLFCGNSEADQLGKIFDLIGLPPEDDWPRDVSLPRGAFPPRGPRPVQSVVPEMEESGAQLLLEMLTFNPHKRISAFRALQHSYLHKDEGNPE
T1 sequence (P30281 1-264 partner limits assumed): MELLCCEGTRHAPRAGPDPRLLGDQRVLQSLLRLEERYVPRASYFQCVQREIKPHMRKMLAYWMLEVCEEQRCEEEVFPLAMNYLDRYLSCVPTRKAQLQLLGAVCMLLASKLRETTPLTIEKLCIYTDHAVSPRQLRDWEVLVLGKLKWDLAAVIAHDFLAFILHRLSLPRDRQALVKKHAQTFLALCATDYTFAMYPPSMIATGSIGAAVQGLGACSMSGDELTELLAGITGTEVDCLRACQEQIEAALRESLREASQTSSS

Compound | Ki (CDK4/cyclin D3) [nM] | Ki (CDK2/cyclin A) [nM] | Ki (CDK1 (cdc2)/cyclin B) [nM] | IC50 (HCT-116 cells) [nM] | IC90 (HCT-116 cells) [nM]
CS(=O)(=O)c1ccc(Nc2nc(N)c(C(=O)c3c(Cl)cccc3Cl)s2)cc1 [AA(2), 4-Amino-5-(2,6-dichlorobenzoyl)-2-(4-methanesulfonyl-phenylamino)-thiazole] | 42 | 138 | 93 | 4500 | 18000
Cc1ccc(CNS(=O)(=O)c2ccc(Nc3nc(N)c(C(=O)c4c(F)cccc4F)s3)cc2)o1 [Example A(11), 4-[4-Amino-5-(2,6-difluoro-benzoyl)-thiazol-2-ylamino]-N-(5-methyl-furan-2-ylmethyl)-benzenesulfonamide] | 28 | < 5 | 3.9 | 43 | 140
Nc1nc(Nc2ccc(S(=O)(=O)N3CCC(CCO)CC3)cc2)sc1C(=O)c1c(F)cccc1F [Example A(16), (4-Amino-2-{4-[4-(2-hydroxy-ethyl)-piperidine-1-sulfonyl]-phenylamino}thiazol-5-yl)-(2,6-difluoro-phenyl)-methanone] | 57 | 18 |  | 1500 | 3900
CCSCCNS(=O)(=O)c1ccc(Nc2nc(N)c(C(=O)c3c(F)cccc3F)s2)cc1 [Example A(19), 4-[4-Amino-5-(2,6-difluoro-benzoyl)-thiazol-2-ylamino]-N-(2-ethylsulfanyl-ethyl)-benzenesulfonamide] | 24 | 1.8 |  | 400 | 1300
CS(=O)(=O)c1ccc(Nc2nc(N)c(C(=O)c3c(F)cccc3F)s2)cc1 [Q(1), 1-[4-Amino-2-(4-methanesulfonyl-phenylamino)-thiazol-5-yl]-1-(2,6-difluoro-phenyl)-methanone] | 73 | 210 |  | 1300 | 3800
CSc1ccc(Nc2nc(N)c(C(=O)c3c(Cl)cccc3Cl)s2)cc1 [R(2), 4-Amino-5-(2,6-dichlorobenzoyl)-2-(4-methylthio-phenylamino)-thiazole] | 30 | 250 |  | 12000 | > 25000
NC(=O)CSc1cccc(Nc2nc(N)c(C(=O)c3c(Cl)cccc3Cl)s2)c1 [Y(3), 2-{3-[4-Amino-5-(2,6-dichloro-benzoyl)-thiazol-2-ylamino]-phenylthio) acetamide] | 33 | 92 |  | 11000 | > 25000
Nc1nc(Nc2ccc([S+]([O-])CCO)cc2)sc1C(=O)c1c(Cl)cccc1Cl (stereo not shown) [Z(3), 4-Amino-5-(2,6-dichlorobenzoyl)-2-[4-(2-hydroxy-ethanesulfinyl)-phenylamino]-thiazole] | 30 | 170 |  | 6800 | 16000
C[S+]([O-])c1ccc(Nc2nc(N)c(C(=O)c3c(Cl)cccc3Cl)s2)cc1 (stereo not shown) [Z(4), 4-Amino-5-(2,6-dichlorobenzoyl)-2-(4-methanesulfinyl-phenylamino)-thiazole] | 38 | 303 | 120 | 4000 | 12000
NC(=O)C[S+]([O-])c1cccc(Nc2nc(N)c(C(=O)c3c(Cl)cccc3Cl)s2)c1 (stereo not shown) [Z(5), 2-{3-[4-Amino-5-(2,6-dichloro-benzoyl)-thiazol-2-ylamino]-benzenesulfinyl}-acetamide] | 230 | 330 |  | > 25000 | > 25000

The next lines start with the values.

Ki (CDK4/cyclin D3) [nM] | Ki (CDK2/cyclin A) [nM] | Ki (CDK1 (cdc2)/cyclin B) [nM] | IC50 (HCT-116 cells) [nM] | IC90 (HCT-116 cells) [nM] | Compound
8.4 | 8.2 |  | 460 | 1800 | CC1CCCCN1CCCNS(=O)(=O)c1ccc(Nc2nc(N)c(C(=O)c3c(F)cccc3F)s2)cc1 (stereo not shown) [Example A(15), 4-[4-Amino-5-(2,6-difluoro-benzoyl)-thiazol-2-ylamino]-N-[3-(2RS-methyl-piperidin-1-yl)-propyl]-benzenesulfonamide]
14 | 2 |  | 140 | 450 | CC(C)OCCNS(=O)(=O)c1ccc(Nc2nc(N)c(C(=O)c3c(F)cccc3F)s2)cc1 [Example A(17), 4-[4-Amino-5-(2,6-difluoro-benzoyl)-thiazol-2-ylamino]-N-(2-isopropoxy-ethyl)-benzenesulfonamide]
24 | 5.8 |  | 1800 | 3700 | Cc1ccc(CCNS(=O)(=O)c2ccc(Nc3nc(N)c(C(=O)c4c(F)cccc4F)s3)cc2)cc1 [Example A(18), 4-[4-Amino-5-(2,6-difluoro-benzoyl)-thiazol-2-ylamino]-N-(2-p-tolyl-ethyl)-benzenesulfonamide]
14 | < 5 |  | 900 | 2600 | Nc1nc(Nc2ccc(S(=O)(=O)NCCc3ccc(F)cc3)cc2)sc1C(=O)c1c(F)cccc1F [Example A(20), 4-[4-Amino-5-(2,6-difluoro-benzoyl)-thiazol-2-ylamino]-N-[2-(4-fluoro-phenyl)-ethyl]-benzenesulfonamide]
6.8 | 14 |  | 1800 | 4400 | CN(C)CCCNS(=O)(=O)c1ccc(Nc2nc(N)c(C(=O)c3c(F)cccc3F)s2)cc1 [Example A(21), 4-[4-Amino-5-(2,6-difluoro-benzoyl)-thiazol-2-ylamino]-N-(3-dimethylamino-propyl)-benzenesulfonamide]
9.7 | 0.74 |  | 280 | 480 | Cc1cc(F)c(C(=O)c2sc(Nc3ccc(S(=O)(=O)NCCOC(C)C)cc3)nc2N)c(F)c1 [Example CC(1), 4-[4-Amino-5-(2,6-difluoro-4-methyl-benzoyl)-thiazol-2-ylamino]-N-(2-isopropoxy-ethyl)-benzenesulfonamide]
11 | 66 |  | 2300 | 6000 | NC(=O)CSc1ccc(Nc2nc(N)c(C(=O)c3c(Cl)cccc3Cl)s2)cc1 [Y(1), 2-{4-[4-Amino-5-(2,6-dichloro-benzoyl)-thiazol-2-ylamino]-phenylthio}-acetamide]
7.6 | 140 |  | 3900 | 13000 | Nc1nc(Nc2ccc(SCCO)cc2)sc1C(=O)c1c(Cl)cccc1Cl [Y(2), 4-Amino-5-(2,6-dichlorobenzoyl)-2-[4-(2-hydroxy-ethylthio)-phenylamino]-thiazole]
15 | 62 |  | 18000 | > 25000 | NC(=O)C[S+]([O-])c1ccc(Nc2nc(N)c(C(=O)c3c(Cl)cccc3Cl)s2)cc1 (stereo not shown) [Z(2), 2-(4-{4-Amino-5-(2,6-dichlorobenzoyl)-thiazol-2-ylamino}-benzenesulfinyl)-acetamide]
